Values of other authors, collected in article PMC3711574 (Biochemistry, 2012).

Test system: BHRF-1
Details: ref [67]

In the case of MRPEIWIAQELRRIGDEFNAYYARRV [Bim], the “Binding to BHRF-1” value is listed as “binds”.
